Source: US12275733B2, “Substituted pyrido[3,4-b]indoles for the treatment of cartilage disorders” (Sanofi, priority 2016, dated 2025)

Tested on: ATDC5 cells
Experiment: Chondrogenesis activity assay in ATDC5 cells (collagen type II induction, immunofluorescence)
Format: cell-based, mouse
Details: Mus musculus; for EC50: collagen type II induction in ATDC5 cells, concentration reaching 50% of maximum induction; for Emax: maximum percent induction of collagen type II relative to internal reference compound at 10 μM, ATDC5 cells
How it was run: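 Collagen type II was stained in fixed, permeabilized cells with an Alexa Fluor 488 secondary and measured by high-content fluorescence imaging. ATDC5 cells had 4 days at 37 °C in insulin-supplemented differentiation medium with compound, typically 40 nM–10 μM, 0.1% DMSO. DMSO wells and a 10 μM internal reference compound were used for normalization.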

EC50 [nM]	Structure (SMILES)	Emax [%]
> 10000	CC(C)c1nccc2c1[nH]c1c(-c3ccc(Cl)nc3Cl)cc(Cl)cc12 [Example 106, 6-Chloro-8-(2,6-dichloro-pyridin-3-yl)-1-isopropyl-9H-pyrido[3,4-b]indole]	20 to 50
560	Cc1nccc2c1[nH]c1c(-c3ccc(-n4ccccc4=O)nc3)cc(Cl)cc12 [Example 107, 5′-(6-Chloro-1-methyl-9H-pyrido[3,4-b]indol-8-yl)-[1,2′]bipyridinyl-2-one]	20 to 50
1400	Cc1cc(-c2ccc(Cl)nc2Cl)c2[nH]c3c(C)nccc3c2c1 [Example 108, 8-(2,6-Dichloro-pyridin-3-yl)-1,6-dimethyl-9H-pyrido[3,4-b]indole]	> 80
720	Cc1nccc2c1[nH]c1c(-c3ccc(N4CCNC(=O)C4)nc3)cc(Cl)cc12 [Example 109, 4-[5-(6-Chloro-1-methyl-9H-pyrido[3,4-b]indol-8-yl)-pyridin-2-yl]-piperazin-2-one]	50 to 80
> 10000	Cc1nccc2c1[nH]c1c(-c3ccc(N4CCOC4=O)nc3)cc(Cl)cc12 [Example 110, 3-[5-(6-Chloro-1-methyl-9H-pyrido[3,4-b]indol-8-yl)-pyridin-2-yl]-oxazolidin-2-one]	20 to 50
1800	COCCn1c2cnccc2c2cc(Cl)cc(-c3ccc(Cl)nc3Cl)c21 [Example 111, 6-Chloro-8-(2,6-dichloro-pyridin-3-yl)-9-(2-methoxy-ethyl)-9H-pyrido[3,4-b]indole]	50 to 80
780	COc1ccc(-c2cc(Cl)cc3c2[nH]c2c(C)nccc23)c(N)n1 [Example 113, 3-(6-Chloro-1-methyl-9H-pyrido[3,4-b]indol-8-yl)-6-methoxy-pyridin-2-ylamine]	> 80
5700	Cn1c(-c2cc(Cl)cc3c4ccncc4n(CC(F)(F)F)c23)cnc1Cl [Example 114, 6-Chloro-8-(2-chloro-3-methyl-3H-imidazol-4-yl)-9-(2,2,2-trifluoro-ethyl)-9H-pyrido[3,4-b]indole]	20 to 50
490	Cc1nccc2c1[nH]c1c(-c3cnn(Cc4cccnc4)c3)cc(Cl)cc12 [Example 115, 6-Chloro-1-methyl-8-(1-pyridin-3-ylmethyl-1H-pyrazol-4-yl)-9H-pyrido[3,4-b]indole]	> 80
1400	CSc1ccc(-c2cc(Cl)cc3c2[nH]c2c(C)nccc23)cn1 [Example 120, 6-Chloro-1-methyl-8-(6-methylsulfanyl-pyridin-3-yl)-9H-pyrido[3,4-b]indole]	50 to 80
590	CCn1c2c(-c3cnn(Cc4ccc(C)nc4C)c3)cc(Cl)cc2c2ccnc(C)c21 [Example 121, 6-Chloro-8-[1-(2,6-dimethyl-pyridin-3-ylmethyl)-1H-pyrazol-4-yl]-9-ethyl-1-methyl-9H-pyrido[3,4-b]indole]	> 80
260	CCn1c2cnccc2c2cc(Cl)cc(-c3ccncc3)c21 [Example 123, 6-Chloro-9-ethyl-8-pyridin-4-yl-9H-pyrido[3,4-b]indole]	20 to 50
2600	CCn1c2cnccc2c2cc(Cl)cc(-c3ccco3)c21 [Example 124, 6-Chloro-9-ethyl-8-furan-2-yl-9H-pyrido[3,4-b]indole]	< 20
1000	CCn1c2c(-c3ccncc3)cc(Cl)cc2c2ccnc(C)c21 [Example 125, 6-Chloro-9-ethyl-1-methyl-8-pyridin-4-yl-9H-pyrido[3,4-b]indole]	> 80
380	Cc1nccc2c1[nH]c1c(-c3ccncc3)cc(Cl)cc12 [Example 130, 6-Chloro-1-methyl-8-pyridin-4-yl-9H-pyrido[3,4-b]indole]	> 80
780	CCn1c2cnccc2c2cc(Cl)cc(-c3ccc(Cl)cc3)c21 [Example 131, 6-Chloro-8-(4-chloro-phenyl)-9-ethyl-9H-pyrido[3,4-b]indole]	> 80
> 10000	FC(F)(F)Cn1c2cnccc2c2cc(Cl)cc(-c3ccc(Cl)s3)c21 [Example 134, 6-Chloro-8-(5-chloro-thiophen-2-yl)-9-(2,2,2-trifluoro-ethyl)-9H-pyrido[3,4-b]indole]	< 20
> 10000	Clc1cc(-c2cncnc2)c2[nH]c3cnccc3c2c1 [Example 141, 6-Chloro-8-pyrimidin-5-yl-9H-pyrido[3,4-b]indole]	< 20
520	CCn1c2cnccc2c2cc(Cl)cc(-c3ccc(OC)cc3)c21 [Example 142, 6-Chloro-9-ethyl-8-(4-methoxy-phenyl)-9H-pyrido[3,4-b]indole]	> 80
480	CCn1c2cnccc2c2cc(Cl)cc(-c3ccccc3Cl)c21 [Example 145, 6-Chloro-8-(2-chloro-phenyl)-9-ethyl-9H-pyrido[3,4-b]indole]	< 20
840	CCn1c2c(-c3ccc(OC)cc3)cc(Cl)cc2c2ccnc(C)c21 [Example 147, 6-Chloro-9-ethyl-8-(4-methoxy-phenyl)-1-methyl-9H-pyrido[3,4-b]indole]	> 80
46	CCn1c2c(-c3ccc(Cl)cc3)cc(Cl)cc2c2ccnc(C)c21 [Example 148, 6-Chloro-8-(4-chloro-phenyl)-9-ethyl-1-methyl-9H-pyrido[3,4-b]indole]	> 80
510	Cc1ccc(-c2cc(Cl)cc3c2[nH]c2c(C)nccc23)cc1 [Example 150, 6-Chloro-1-methyl-8-p-tolyl-9H-pyrido[3,4-b]indole]	> 80

More lines, now with the values behind:

Structure (SMILES)	EC50 [nM]	Emax [%]
FC(F)(F)Cn1c2cnccc2c2cc(Cl)cc(-c3cnn(Cc4ccncc4)c3)c21 [Example 112, 6-Chloro-8-(1-pyridin-4-ylmethyl-1H-pyrazol-4-yl)-9-(2,2,2-trifluoro-ethyl)-9H-pyrido[3,4-b]indole]	490	> 80
FC(F)(F)Cn1c2cnccc2c2cc(Cl)cc(-c3cncnc3)c21 [Example 126, 6-Chloro-8-pyrimidin-5-yl-9-(2,2,2-trifluoro-ethyl)-9H-pyrido[3,4-b]indole]	> 10000	20 to 50
FC(F)(F)Cn1c2cnccc2c2cc(Cl)cc(-c3ccncc3)c21 [Example 127, 6-Chloro-8-pyridin-4-yl-9-(2,2,2-trifluoro-ethyl)-9H-pyrido[3,4-b]indole]	380	50 to 80
FC(F)(F)Cn1c2cnccc2c2cc(Cl)cc(-c3ccccc3)c21 [Example 128, 6-Chloro-8-phenyl-9-(2,2,2-trifluoro-ethyl)-9H-pyrido[3,4-b]indole]	3900	< 20
FC(F)(F)Cn1c2cnccc2c2cc(Cl)cc(-c3ccc(Cl)cc3)c21 [Example 129, 6-Chloro-8-(4-chloro-phenyl)-9-(2,2,2-trifluoro-ethyl)-9H-pyrido[3,4-b]indole]	860	> 80
Nc1ncc(-c2cc(Cl)cc3c4ccncc4n(CC(F)(F)F)c23)cn1 [Example 132, 5-[6-Chloro-9-(2,2,2-trifluoro-ethyl)-9H-pyrido[3,4-b]indol-8-yl]-pyrimidin-2-ylamine]	4500	20 to 50
CCn1c2cnccc2c2cc(Cl)cc(-c3cncnc3)c21 [Example 133, 6-Chloro-9-ethyl-8-pyrimidin-5-yl-9H-pyrido[3,4-b]indole]	> 10000	20 to 50
Cn1cc(-c2cc(Cl)cc3c4ccncc4n(CC(F)(F)F)c23)cn1 [Example 135, 6-Chloro-8-(1-methyl-1H-pyrazol-4-yl)-9-(2,2,2-trifluoro-ethyl)-9H-pyrido[3,4-b]indole]	330	50 to 80
FC(F)(F)Cn1c2cnccc2c2cc(Cl)cc(-c3cc(-c4ccccc4)no3)c21 [Example 136, 6-Chloro-8-(3-phenyl-isoxazol-5-yl)-9-(2,2,2-trifluoro-ethyl)-9H-pyrido[3,4-b]indole]	4100	50 to 80
CC(C)Cn1cc(-c2cc(Cl)cc3c4ccncc4n(CC(F)(F)F)c23)cn1 [Example 137, 6-Chloro-8-(1-isobutyl-1H-pyrazol-4-yl)-9-(2,2,2-trifluoro-ethyl)-9H-pyrido[3,4-b]indole]	1400	20 to 50
Cc1nn(C)c(C)c1-c1cc(Cl)cc2c3ccncc3n(CC(F)(F)F)c12 [Example 138, 6-Chloro-9-(2,2,2-trifluoro-ethyl)-8-(1,3,5-trimethyl-1H-pyrazol-4-yl)-9H-pyrido[3,4-b]indole]	> 10000	< 20
FC(F)(F)Cn1c2cnccc2c2cc(Cl)cc(-c3cnn4ccccc34)c21 [Example 139, 6-Chloro-8-pyrazolo[1,5-a]pyridin-3-yl-9-(2,2,2-trifluoro-ethyl)-9H-pyrido[3,4-b]indole]	> 10000	< 20
Cc1cc(-c2cc(Cl)cc3c4ccncc4n(CC(F)(F)F)c23)n(C)n1 [Example 140, 6-Chloro-8-(2,5-dimethyl-2H-pyrazol-3-yl)-9-(2,2,2-trifluoro-ethyl)-9H-pyrido[3,4-b]indole]	910	20 to 50
CCn1c2cnccc2c2cc(Cl)cc(-c3ccc(C)cc3)c21 [Example 143, 6-Chloro-9-ethyl-8-p-tolyl-9H-pyrido[3,4-b]indole]	970	20 to 50
FC(F)(F)Cn1c2cnccc2c2cc(Cl)cc(-c3cn[nH]c3)c21 [Example 144, 6-Chloro-8-(1H-pyrazol-4-yl)-9-(2,2,2-trifluoro-ethyl)-9H-pyrido[3,4-b]indole]	580	< 20
CCn1c2cnccc2c2cc(Cl)cc(-c3cccc(OC)c3)c21 [Example 146, 6-Chloro-9-ethyl-8-(3-methoxy-phenyl)-9H-pyrido[3,4-b]indole]	41	< 20
